Reference: BindingDB's records for doi:10.7270/Q2TX3CTT (Broad Institute, 2010)

Biological target: Glycogen synthase kinase-3 beta (Homo sapiens, UniProt P49841)
Experiment: GSK3beta kinase inhibitor potency, dose response, biochemical, luminescence, cell-free homogeneous, retest (AID 434954)

Chain of Glycogen synthase kinase-3 beta (P49841 whole entry): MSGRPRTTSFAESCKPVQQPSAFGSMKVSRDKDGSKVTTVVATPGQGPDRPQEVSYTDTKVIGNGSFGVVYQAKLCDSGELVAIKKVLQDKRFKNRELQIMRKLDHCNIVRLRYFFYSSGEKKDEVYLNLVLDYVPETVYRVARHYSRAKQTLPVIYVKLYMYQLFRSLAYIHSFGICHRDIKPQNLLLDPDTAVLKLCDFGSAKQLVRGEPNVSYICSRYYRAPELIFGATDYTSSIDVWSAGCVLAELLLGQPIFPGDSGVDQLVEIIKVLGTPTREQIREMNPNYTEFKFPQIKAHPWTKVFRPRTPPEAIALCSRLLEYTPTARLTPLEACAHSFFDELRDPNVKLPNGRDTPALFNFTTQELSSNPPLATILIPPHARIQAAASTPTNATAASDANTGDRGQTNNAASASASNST

Row | SMILES | EC50 [µM]
1 | Cc1ccc(Nc2nc(NCCCN3CCOCC3)nc(N)c2[N+](=O)[O-])cc1 [N4-(4-methylphenyl)-N2-(3-morpholin-4-ylpropyl)-5-nitro-pyrimidine-2,4,6-triamine] | > 300
2 | Nc1nc(Nc2ccccc2)nc(NC2CCCCC2)c1[N+](=O)[O-] [N4-cyclohexyl-5-nitro-N2-phenylpyrimidine-2,4,6-triamine] | 7.68
3 | COc1ccc(OC)c(Nc2nc(N)c([N+](=O)[O-])c(NC3CCCCC3)n2)c1 [N4-cyclohexyl-N2-(2,5-dimethoxyphenyl)-5-nitropyrimidine-2,4,6-triamine] | > 300
4 | CCOc1cc(C=NN=C(N)N)ccc1OCc1ccc(Cl)cc1 [N''-{4-[(4-chlorobenzyl)oxy]-3-ethoxybenzylidene}carbonohydrazonic diamide] | > 300
5 | CCN1CCN(c2cc(C)c3cc(NC(=O)CCC(=O)Nc4ccc(OC)cc4OC)ccc3n2)CC1 [N'-(2,4-dimethoxyphenyl)-N-[2-(4-ethyl-1-piperazinyl)-4-methyl-6-quinolinyl]butanediamide] | > 300
6 | COc1ccc(OC)c(Nc2nc(NCc3ccco3)nc(N)c2[N+](=O)[O-])c1 [N'-(2,5-Dimethoxy-phenyl)-N-furan-2-ylmethyl-5-nitro-pyrimidine-2,4,6-triamine] | > 300
7 | COc1ccccc1Nc1nc(NCCC(C)C)nc(N)c1[N+](=O)[O-] [N'-(2-Methoxy-phenyl)-N-(3-methyl-butyl)-5-nitro-pyrimidine-2,4,6-triamine] | 0.584
8 | COc1cccc(N(CC(=O)NCC2CCCO2)C(=O)CCC(=O)Nc2nccs2)c1 (stereo not drawn) [N'-(3-methoxyphenyl)-N'-[2-oxo-2-(oxolan-2-ylmethylamino)ethyl]-N-(1,3-thiazol-2-yl)butanediamide] | > 300
9 | Nc1nc(NCC2CCCO2)nc(Nc2ccc(Cl)cc2)c1[N+](=O)[O-] (stereo not drawn) [N'-(4-Chloro-phenyl)-5-nitro-N-(tetrahydro-furan-2-ylmethyl)-pyrimidine-2,4,6-triamine] | 2.29
10 | Nc1nc(NCCCN2CCOCC2)nc(Nc2ccc(Cl)cc2)c1[N+](=O)[O-] [N'-(4-Chloro-phenyl)-N-(3-morpholin-4-yl-propyl)-5-nitro-pyrimidine-2,4,6-triamine] | 1.47
11 | COc1ccc(Nc2nc(NCC3CCCO3)nc(N)c2[N+](=O)[O-])cc1 (stereo not drawn) [N'-(4-Methoxy-phenyl)-5-nitro-N-(tetrahydro-furan-2-ylmethyl)-pyrimidine-2,4,6-triamine] | > 300
12 | Nc1nc(NCCCN2CCOCC2)nc(NCc2ccccc2)c1[N+](=O)[O-] [N'-Benzyl-N-(3-morpholin-4-yl-propyl)-5-nitro-pyrimidine-2,4,6-triamine] | 8.32
13 | CCOc1ccc(Nc2nc(N)c([N+](=O)[O-])c(NCc3ccccc3)n2)cc1 [N'-Benzyl-N-(4-ethoxy-phenyl)-5-nitro-pyrimidine-2,4,6-triamine] | > 300
14 | COc1ccc(CN(CC(=O)NCc2ccco2)C(=O)CCC(=O)Nc2ccccn2)cc1 [N'-[2-(2-furanylmethylamino)-2-oxoethyl]-N'-[(4-methoxyphenyl)methyl]-N-(2-pyridinyl)butanediamide] | > 300
15 | Cc1cc(NC(=O)CCC(=O)N(c2cccnc2)C(C(=O)NC2CCCC2)c2ccccc2F)no1 (stereo not drawn) [N'-[2-(cyclopentylamino)-1-(2-fluorophenyl)-2-oxoethyl]-N-(5-methyl-1,2-oxazol-3-yl)-N'-pyridin-3-ylbutanediamide] | > 300
16 | COc1ccc(CNC(=O)CN(Cc2ccccc2)C(=O)CCC(=O)Nc2nccs2)cc1 [N'-[2-[(4-methoxyphenyl)methylamino]-2-oxoethyl]-N'-(phenylmethyl)-N-(2-thiazolyl)butanediamide] | 11.1
17 | CCn1c(SCC(=O)NNC(=O)c2ccc(C)cc2)nnc1C1CC1 [N'-[2-[(5-cyclopropyl-4-ethyl-1,2,4-triazol-3-yl)sulfanyl]acetyl]-4-methylbenzohydrazide] | > 300
18 | O=C(CN(Cc1cccs1)C(=O)CCC(=O)Nc1ccccn1)NCc1ccccc1 [N'-[2-oxo-2-[(phenylmethyl)amino]ethyl]-N-(2-pyridinyl)-N'-(thiophen-2-ylmethyl)butanediamide] | > 300
